According to US8183388B2, “Androgen receptor modulator and uses thereof” (Eli Lilly and Company, priority 2009, dated 2012):
Like-named read-outs stand apart in the source and are kept apart here.

Assays:
[1] = tested on: castrated (GDX) male Sprague Dawley rats; test: In vivo model of efficacy and selectivity (castrated rats, tissue wet weights); conditions: for mean normalized LA wet weight value / mean normalized bulbocavernous wet weight value / mean normalized prostate wet weight value: two week treatment, n=6, wet weight divided by body weight
Experimental: Eight week old male Sprague Dawley rats are castrated (gonadectomized or “GDX”) according to approved procedures and allowed to waste for eight weeks. Age-matched sham-operated […] are also prepared. Animals are housed in a temperature-controlled room (24° C.) with a reversed 12 hour light/dark cycle and water and food are available ad libitum.
Animals are randomized based on body weight prior to ascribing a test slot. Test compound in vehicle, or vehicle alone, is administered daily by subcutaneous injection to the castrated 16 week old rats (body weight about 380-400 g) using a conventional vehicle such as 5% DMSO/95% soybean oil. Sham operated rats treated with vehicle alone are used as a treatment positive controls, whereas the castrated rats treated only with vehicle are used as treatment negative control. A separate cohort of castrated animals are treated with testosterone as a comparator.
Test animals are dosed daily over a two or eight week timeframe with, for example, 0.1, 0.3, or 1.0 mg/kg per day of the compound of the present invention, or weekly with 10 mg/kg per week of testosterone (sesame oil vehicle) After the treatment period the animals are sacrificed and the wet weight of the levator ani (LA) muscle, the prostate and the bulbocavernous muscle from each animal is determined (after weighing, the bulbocavernous muscle may be flash frozen in liquid nitrogen for later use in measuring neuronal nitric oxide synthase mRNA, as described below). The wet weights are then normalized by dividing each individual wet weight by the body weight of the corresponding animal at the end of the study. The normalized values from the treatment animals are then compared to the normalized values from the castrated, vehicle-only control group or the sham group. As an indicator of tissue selective activity, the wet weight of the prostate from test animals may be similarly compared to the wet weight of the prostate from the control groups or the testosterone-treated comparator group.

[2] = Determination of plasma exposure; assay type: in vivo; conditions: Sprague Dawley, rat, male rats, read-out: AUC (area under the plasma concentration time curve)
Experimental: Groups of male Sprague Dawley rats (6 animals/group) are dosed either orally (dosing volume of 1.25 ml/kg; vehicle of 5% DMSO/95% HEC) or subcutaneously (dosing volume of 2.5 ml/kg; vehicle of 5% DMSO/95% soybean oil) with 10 mg/kg p.o, 1 mg/kg s.c., 3 mg/kg s.c., or 10 mg/kg s.c. of the compound of Formula (I), once per day for two weeks. Starting on the second to last day of dosing, plasma samples are collected at 0.5, 2, 4, or 24 hours post-dosing (two animals are sampled at each time-point, with the same animals being used for the 0.5 and 24 hour time-point samples). The plasma concentration of the compound of Formula (I) is determined for each collected sample using LC/MS/MS (Sciex API-4000 LC/MS/MS system). The resulting concentrations are used to construct an area under the plasma concentration time curve (AUC) for each administered dose as an index of exposure. Following a protocol essentially as described above, the administered doses of the compound of Formula (I) produced the following AUC values: 10 mg/kg p.o: about 295,511 ng·hr./ml.; 1 mg/kg s.c.: about 38,963 ng·hr./ml.; 3 mg/kg s.c.: about 137,056 ng·hr./ml.; and 10 mg/kg s.c.: about 218,537 ng·hr./ml.

SMILES: CC(C)OC(=O)N[C@H]1Cc2c(n(C[C@H]3OCC[C@@H]3O)c3ccc(C#N)cc23)C1 [compound of Formula (I), [(S)-7-Cyano-4-((2R,3S)-3-hydroxytetrahydrofuran-2-ylmethyl)-1,2,3,4-tetrahydrocyclopenta[b]indol-2-yl]-carbamic acid isopropyl ester]
- mean normalized LA wet weight value ([1]; 0.1 mg/kg per day s.c.): about 0.44
- mean normalized bulbocavernous wet weight value ([1]; 0.1 mg/kg per day s.c.): about 0.77
- mean normalized prostate wet weight value ([1]; 0.1 mg/kg per day s.c.): about 0.04
- mean normalized LA wet weight value ([1]; 0.3 mg/kg per day s.c.): about 0.57
- mean normalized bulbocavernous wet weight value ([1]; 0.3 mg/kg per day s.c.): about 1.29
- mean normalized prostate wet weight value ([1]; 0.3 mg/kg per day s.c.): about 0.14
- mean normalized LA wet weight value ([1]; 1.0 mg/kg per day s.c.): about 0.68
- mean normalized bulbocavernous wet weight value ([1]; 1.0 mg/kg per day s.c.): about 1.41
- mean normalized prostate wet weight value ([1]; 1.0 mg/kg per day s.c.): about 0.52
- levator ani and bulbocavernous muscle weights in comparison to the castrated control group ([1]; 0.1-1.0 mg/kg per day s.c., two weeks): dose dependent increase
- effect on prostate weight when compared to Sham control and testosterone treated animals ([1]; two weeks, tissue selectivity): decreased effect
- AUC ([2]; po, 10 mg/kg p.o. once per day for two weeks, 5% DMSO/95% HEC): ~296 µg·h/mL
- AUC ([2]; sc, 1 mg/kg s.c. once per day for two weeks, 5% DMSO/95% soybean oil): ~39 µg·h/mL
- AUC ([2]; sc, 3 mg/kg s.c. once per day for two weeks, 5% DMSO/95% soybean oil): ~137 µg·h/mL
- AUC ([2]; sc, 10 mg/kg s.c. once per day for two weeks, 5% DMSO/95% soybean oil): ~219 µg·h/mL
